Our source for the Tm increase, binding and KD values is article PMC12021085 (2025).

SMILES strings stand for the structures.

Assay [1] has as its system NOP56-G4 (DNA, G4) GGGCCTGGGCCTGGGCCTGGG
In words: CD melting at 295 nm. The note with it: Na+ (1 mM sodium phosphate); pH 7; 3 equivalents PDS; Tm 44.8 to 58.8 °C.

Assay [2] relates to NOP56-G4 template (with annealed Cy5 primer) (DNA, G4) GGGCCTGGGCCTGGGCCTGGGTTTTTTTATAGTGAGTCGTATTA/TAATACGACTCACTATA
As to the kind of experiment: DNA polymerase stop assay (Klenow fragment). The note with it: K+ (100 mM KCl), Na+ (50 mM NaCl), Mg2+ (10 mM MgCl2); 10 mM Tris-HCl pH 7.9, 1 mM DTT, 37 °C; PDS concentration-dependent stalling.

Assay [3] has as its system NOP56-G4 (DNA, G4) GGGCCTGGGCCTGGGCCTGGG
As to the kind of experiment: ITC. Particulars: Na+ (1 mM sodium phosphate); pH 7.0, room temperature; 200 µM PDS titrated into 10 µM DNA.

Assay [4] has the same test system. In words: CD spectroscopy. Particulars: K+ (100 mM KCl), Na+ (1 mM sodium phosphate); pH 7, 25 °C; 20 µM DNA, 20 µM PDS; antiparallel G4 features.
For assay [5] the test system is unchanged. As to the kind of experiment: solution NMR structure. Particulars: Na+ (1 mM sodium phosphate); pH 7, 25 °C; 0.5 mM DNA, 1.5 mM PDS; stacks on terminal G-tetrad.

Usually KD stands for the free concentration of one partner at which half of the binding sites on the other are occupied at equilibrium, for simple one-to-one binding. Low values mean a tighter complex, high ones a looser complex.

As to `NCCOc1cc(C(=O)Nc2cc(OCCN)c3ccccc3n2)nc(C(=O)Nc2cc(OCCN)c3ccccc3n2)c1`, the Tm increase in assay [1] is ~ 14 °C. Besides, the binding result in assay [2], in assay [4] and in assay [5] was “yes” each time. The same compound returned a KD in assay [3] of 640 ± 20 nM.
